Molecular target: Serine/threonine-protein kinase pim-1 (Homo sapiens, UniProt P11309)
Assay: Radioactive Filter Plate Assay
Settings: pH 7.5; 23 °C
Method: PIM-1 kinase activity was evaluated using calf thymus histones as the substrate in a 96-well filter plate format. After incubation, the plate was washed and dried. The scintillation cocktail was added and the radioactivity counted on a TopCount plate reader (Perkin-Elmer).

Chain of Serine/threonine-protein kinase pim-1 (P11309 whole entry): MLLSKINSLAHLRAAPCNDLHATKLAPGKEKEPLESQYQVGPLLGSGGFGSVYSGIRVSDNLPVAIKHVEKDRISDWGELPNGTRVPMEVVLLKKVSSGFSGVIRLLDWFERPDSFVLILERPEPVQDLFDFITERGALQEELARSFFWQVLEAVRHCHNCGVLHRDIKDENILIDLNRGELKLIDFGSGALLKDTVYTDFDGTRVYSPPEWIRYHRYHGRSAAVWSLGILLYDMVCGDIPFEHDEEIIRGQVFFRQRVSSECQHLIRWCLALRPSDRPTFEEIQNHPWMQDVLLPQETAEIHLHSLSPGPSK

| SMILES | IC50 [µM] |
| --- | --- |
| N#Cc1c(-c2ccco2)c2c([nH]c1=O)-c1ccccc1OC2 [6-(furan-2-yl)-4-oxo-9-oxa-3-azatricyclo[8.4.0.0^{2,7}]tetradeca-1(14),2(7),5,10,12-pentaene-5-carbonitrile] | 0.87 |
| N#Cc1c(C(F)(F)F)cc(-c2ccco2)[nH]c1=O [6-(furan-2-yl)-2-oxo-4-(trifluoromethyl)-1,2-dihydropyridine-3-carbonitrile] | 16 |
| N#Cc1c(-c2cccs2)cc(C(F)(F)F)[nH]c1=O [2-oxo-4-(thiophen-2-yl)-6-(trifluoromethyl)-1,2-dihydropyridine-3-carbonitrile] | 3.54 |
| N#Cc1c(-c2cccs2)c2c([nH]c1=O)-c1ccccc1OC2 [4-oxo-6-(thiophen-2-yl)-9-oxa-3-azatricyclo[8.4.0.0^{2,7}]tetradeca-1(14),2(7),5,10,12-pentaene-5-carbonitrile] | 0.46 |
| N#Cc1c(-c2cccs2)c2c([nH]c1=O)-c1ccccc1SC2 [4-oxo-6-(thiophen-2-yl)-9-thia-3-azatricyclo[8.4.0.0^{2,7}]tetradeca-1(10),2(7),5,11,13-pentaene-5-carbonitrile] | 1.49 |
| N#Cc1c(-c2cccs2)cc(-c2cccs2)nc1O [2-oxo-4,6-bis(thiophen-2-yl)-1,2-dihydropyridine-3-carbonitrile] | 0.99 |
